For 1 substance, Blood glucose levels results are on record in patent US6432383B1, “Method for administering insulin” (Generex Pharmaceuticals Incorporated, priority 2000, dated 2002).

The subject of the assay is healthy non-diabetic human volunteers. Kind of assay: Blood glucose in fasted healthy non-diabetic volunteers, injected vs oral insulin (Example 1). Type of assay: in vivo. Further details: unit not given here. Conditions: sub-cutaneous injection 10 units, avg of 5 fasted healthy volunteers. The method, then:
In one set of tests, five healthy non-diabetic human volunteers were tested with insulin, by injection. In another set of tests the volunteers were tested with insulin, taken orally. The volunteers fasted from midnight prior to the test, with no food being taken during the 4 hour study.
On the first day, the volunteers received 10 units insulin by injection (regular fast acting insulin, available from Eli Lilly). On the second day, the volunteers received 100 units (1 mL volume per drop, approximately 20 drops) of the above-prepared oral insulin (10 times the injection dose). In both tests, blood glucose levels were monitored every 15 minutes by Bayer's Glucometer Elite.

As to insulin [regular fast acting insulin], the Blood glucose levels is, setting by setting: (0 min) 5.8; (15 min) 5.8; (30 min) 5.4; (60 min) 5.0; (75 min) 4.6; (90 min) 4.3. The substance also had a Blood glucose levels (120 min) of 3.8; a Blood glucose levels (150 min) of 3.6; a Blood glucose levels (180 min) of 3.4; a Blood glucose levels (210 min) of 4.2; a Blood glucose levels (240 min) of 4.5.
